What was measured:
[1] = target: porcine uterine progesterone receptor; conditions: read-out: IC50 for the porcine uterine progesterone receptor; ref [17]; cited from earlier work
Progesterone Receptor = target: T1, Progesterone Receptor (Homo sapiens, UniProt P06401); assay: Alkaline phosphatase assay in T47D cells; assay type: cell-based; conditions: 20 h, progesterone at 10nM
T1 sequence (P06401 1-933): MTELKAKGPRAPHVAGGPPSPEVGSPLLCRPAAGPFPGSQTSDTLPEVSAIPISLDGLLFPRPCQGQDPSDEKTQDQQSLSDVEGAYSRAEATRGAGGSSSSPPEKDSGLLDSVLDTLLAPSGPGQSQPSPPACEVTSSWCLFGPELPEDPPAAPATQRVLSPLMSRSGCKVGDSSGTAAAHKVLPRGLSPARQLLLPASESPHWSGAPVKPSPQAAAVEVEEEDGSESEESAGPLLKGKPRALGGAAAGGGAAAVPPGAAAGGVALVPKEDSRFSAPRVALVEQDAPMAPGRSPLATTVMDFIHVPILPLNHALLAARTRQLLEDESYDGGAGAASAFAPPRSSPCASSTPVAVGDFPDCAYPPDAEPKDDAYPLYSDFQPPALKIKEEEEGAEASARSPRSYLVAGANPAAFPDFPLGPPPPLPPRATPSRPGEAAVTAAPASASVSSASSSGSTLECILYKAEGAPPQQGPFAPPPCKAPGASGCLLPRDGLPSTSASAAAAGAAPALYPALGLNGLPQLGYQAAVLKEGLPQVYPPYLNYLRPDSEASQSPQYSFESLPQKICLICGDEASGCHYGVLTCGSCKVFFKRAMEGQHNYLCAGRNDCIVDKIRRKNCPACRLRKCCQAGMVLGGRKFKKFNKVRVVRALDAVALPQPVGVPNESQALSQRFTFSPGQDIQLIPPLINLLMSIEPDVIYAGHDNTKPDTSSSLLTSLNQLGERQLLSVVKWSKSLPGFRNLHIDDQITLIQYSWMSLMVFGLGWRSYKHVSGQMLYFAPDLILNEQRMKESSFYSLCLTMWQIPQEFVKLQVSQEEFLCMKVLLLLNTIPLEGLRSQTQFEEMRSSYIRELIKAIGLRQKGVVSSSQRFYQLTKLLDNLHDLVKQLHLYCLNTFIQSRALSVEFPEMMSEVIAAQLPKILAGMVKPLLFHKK

rabbit endometrium = assay: McPhail assay in estrogen-primed immature rabbits; assay type: in vivo; conditions: progesterone alone (method: MPA 0.15mg/kg/day)

| SMILES | IC50 [1] [nM] | induction of alkaline phosphatase activity (Progesterone Receptor) | progestational histologic changes (McPhail Index), positive control (rabbit endometrium) |
| --- | --- | --- | --- |
| CC(=O)O[C@H]1[C@@H](O)C=C2C=C3OC(=O)C(C)=C3C[C@]2(C)[C@H]1C [PF1092A] | 30 | – | – |
| CC(=O)[C@H]1CC[C@H]2[C@@H]3CCC4=CC(=O)CC[C@]4(C)[C@H]3CC[C@]12C [Progesterone] | – | significantly increased alkaline phosphatase activity | maximal progestational histologic changes were noted |

Source: paper PMC3576019 (The Journal of steroid biochemistry and molecular biology, 2010)
